Assay results taken from PMC11157767 (Molecular Cancer, 2024).

System: TFG-MET allograft tumors
Experiment: RNA-sequencing, differential expression and GSEA of TFG-MET allograft tumors
Format: in vivo, mouse
Conditions: CAP v Veh
Protocol: Error bars display standard error of mean, statistical significance was determined using t-test analysis. (****;p<0.0001, ***;p<0.001, **;p<0.01, *;p<0.05). […] Each dot represents an individual replicate. Error bars display standard error of the mean.
Each dot represents one gene.

CNC(=O)c1ccc(-c2cnc3ncc(Cc4ccc5ncccc5c4)n3n2)cc1F [Capmatinib]
ES (GOMF_3_5_DNA_HELICASE_ACTIVITY): -0.6834
NES (GOMF_3_5_DNA_HELICASE_ACTIVITY, padj 0.00671103): -1.906
ES (GOMF_ACTIVATING_TRANSCRIPTION_FACTOR_BINDING): -0.4071
NES (GOMF_ACTIVATING_TRANSCRIPTION_FACTOR_BINDING, padj 0.0419799): -1.5828
ES (GOMF_ALPHA_ACTININ_BINDING): -0.5133
NES (GOMF_ALPHA_ACTININ_BINDING, padj 0.0520078): -1.603
ES (GOMF_AMYLOID_BETA_BINDING): 0.3131
NES (GOMF_AMYLOID_BETA_BINDING, padj 0.0419799): 1.527
ES (GOMF_ANTIOXIDANT_ACTIVITY): 0.3898
NES (GOMF_ANTIOXIDANT_ACTIVITY, padj 0.0072907): 1.809
ES (GOMF_ATPASE_COUPLED_ION_TRANSMEMBRANE_TRANSPORTER_ACTIVITY): 0.474
NES (GOMF_ATPASE_COUPLED_ION_TRANSMEMBRANE_TRANSPORTER_ACTIVITY, padj 0.00463): 2.003
ES (GOMF_BETA_2_MICROGLOBULIN_BINDING): 0.5632
NES (GOMF_BETA_2_MICROGLOBULIN_BINDING, padj 0.0448774): 1.801
ES (GOMF_CALCIUM_DEPENDENT_PROTEIN_BINDING): 0.337
NES (GOMF_CALCIUM_DEPENDENT_PROTEIN_BINDING, padj 0.0607303): 1.56
ES (GOMF_CARBOHYDRATE_BINDING): 0.2512
NES (GOMF_CARBOHYDRATE_BINDING, padj 0.0202682): 1.428
ES (GOMF_CARBOXYLIC_ESTER_HYDROLASE_ACTIVITY): 0.3196
NES (GOMF_CARBOXYLIC_ESTER_HYDROLASE_ACTIVITY, padj 0.00853155): 1.6126
ES (GOMF_CATALYTIC_ACTIVITY_ACTING_ON_A_TRNA): -0.5808
NES (GOMF_CATALYTIC_ACTIVITY_ACTING_ON_A_TRNA, padj 7.15005e-11): -2.431
ES (GOMF_CATALYTIC_ACTIVITY_ACTING_ON_DNA): -0.5359
NES (GOMF_CATALYTIC_ACTIVITY_ACTING_ON_DNA, padj 5.51748e-13): -2.374
ES (GOMF_CATION_CATION_ANTIPORTER_ACTIVITY): 0.4863
NES (GOMF_CATION_CATION_ANTIPORTER_ACTIVITY, padj 0.0546567): 1.7655
ES (GOMF_CATION_TRANSMEMBRANE_TRANSPORTER_ACTIVITY): 0.1933
NES (GOMF_CATION_TRANSMEMBRANE_TRANSPORTER_ACTIVITY, padj 0.0600708): 1.207
ES (GOMF_COA_HYDROLASE_ACTIVITY): 0.52
NES (GOMF_COA_HYDROLASE_ACTIVITY, padj 0.0696276): 1.759
ES (GOMF_CORE_PROMOTER_SEQUENCE_SPECIFIC_DNA_BINDING): -0.4562
NES (GOMF_CORE_PROMOTER_SEQUENCE_SPECIFIC_DNA_BINDING, padj 0.072132): -1.575
ES (GOMF_CYTOKINE_BINDING): 0.2766
NES (GOMF_CYTOKINE_BINDING, padj 0.0484841): 1.402
ES (GOMF_CYTOKINE_RECEPTOR_ACTIVITY): 0.3569
NES (GOMF_CYTOKINE_RECEPTOR_ACTIVITY, padj 0.00978552): 1.74
ES (GOMF_DELAYED_RECTIFIER_POTASSIUM_CHANNEL_ACTIVITY): 0.4424
NES (GOMF_DELAYED_RECTIFIER_POTASSIUM_CHANNEL_ACTIVITY, padj 0.0600708): 1.691
ES (GOMF_DEMETHYLASE_ACTIVITY): -0.5386
NES (GOMF_DEMETHYLASE_ACTIVITY, padj 0.0072907): -1.838
ES (GOMF_DNA_BINDING_TRANSCRIPTION_ACTIVATOR_ACTIVITY): -0.3206
NES (GOMF_DNA_BINDING_TRANSCRIPTION_ACTIVATOR_ACTIVITY, padj 0.00368803): -1.494
ES (GOMF_DNA_BINDING_TRANSCRIPTION_REPRESSOR_ACTIVITY): -0.3134
NES (GOMF_DNA_BINDING_TRANSCRIPTION_REPRESSOR_ACTIVITY, padj 0.0381242): -1.423
ES (GOMF_DNA_HELICASE_ACTIVITY): -0.6746
NES (GOMF_DNA_HELICASE_ACTIVITY, padj 6.80206e-12): -2.633
ES (GOMF_DNA_POLYMERASE_ACTIVITY): -0.499
NES (GOMF_DNA_POLYMERASE_ACTIVITY, padj 0.057276): -1.624
ES (GOMF_DNA_POLYMERASE_BINDING): -0.6079
NES (GOMF_DNA_POLYMERASE_BINDING, padj 0.0319688): -1.763
ES (GOMF_DOUBLE_STRANDED_RNA_BINDING): -0.4239
NES (GOMF_DOUBLE_STRANDED_RNA_BINDING, padj 0.0120781): -1.66
ES (GOMF_ENDONUCLEASE_ACTIVITY): -0.4125
NES (GOMF_ENDONUCLEASE_ACTIVITY, padj 0.00509455): -1.716
ES (GOMF_ENDONUCLEASE_ACTIVITY_ACTIVE_WITH_EITHER_RIBO_OR_DEOXYRIBONUCLEIC_ACIDS_AND_PRODUCING_5_PHOSPHOMONOESTERS): -0.5195
NES (GOMF_ENDONUCLEASE_ACTIVITY_ACTIVE_WITH_EITHER_RIBO_OR_DEOXYRIBONUCLEIC_ACIDS_AND_PRODUCING_5_PHOSPHOMONOESTERS, padj 0.00950889): -1.794
ES (GOMF_ENDOPEPTIDASE_REGULATOR_ACTIVITY): 0.2991
NES (GOMF_ENDOPEPTIDASE_REGULATOR_ACTIVITY, padj 0.0132396): 1.521
ES (GOMF_ENDORIBONUCLEASE_ACTIVITY): -0.4748
NES (GOMF_ENDORIBONUCLEASE_ACTIVITY, padj 0.00565255): -1.786
ES (GOMF_ENDORIBONUCLEASE_ACTIVITY_PRODUCING_5_PHOSPHOMONOESTERS): -0.5711
NES (GOMF_ENDORIBONUCLEASE_ACTIVITY_PRODUCING_5_PHOSPHOMONOESTERS, padj 0.0162496): -1.81
ES (GOMF_FATTY_ACID_BINDING): 0.4525
NES (GOMF_FATTY_ACID_BINDING, padj 0.0492693): 1.741
NES (GOMF_FOUR_WAY_JUNCTION_DNA_BINDING, padj 0.0177962): -1.783
NES (GOMF_GLUTATHIONE_PEROXIDASE_ACTIVITY, padj 0.00790825): 2.092
ES (GOMF_GLYCOLIPID_BINDING): 0.506
NES (GOMF_GLYCOLIPID_BINDING, padj 0.0202682): 1.835
ES (GOMF_GUANYL_NUCLEOTIDE_BINDING): -0.2896
NES (GOMF_GUANYL_NUCLEOTIDE_BINDING, padj 0.0419799): -1.351
ES (GOMF_HEAT_SHOCK_PROTEIN_BINDING): -0.3614
NES (GOMF_HEAT_SHOCK_PROTEIN_BINDING, padj 0.0624118): -1.511
ES (GOMF_HEME_COPPER_TERMINAL_OXIDASE_ACTIVITY): 0.566
NES (GOMF_HEME_COPPER_TERMINAL_OXIDASE_ACTIVITY, padj 0.00343436): 2.052
ES (GOMF_HISTONE_DEACETYLASE_BINDING): -0.365
NES (GOMF_HISTONE_DEACETYLASE_BINDING, padj 0.0452435): -1.507
ES (GOMF_HYDROLASE_ACTIVITY_ACTING_ON_ACID_ANHYDRIDES): -0.3454
ES (GOMF_HYDROLASE_ACTIVITY_ACTING_ON_CARBON_NITROGEN_BUT_NOT_PEPTIDE_BONDS_IN_CYCLIC_AMIDINES): -0.5898
NES (GOMF_HYDROLASE_ACTIVITY_ACTING_ON_CARBON_NITROGEN_BUT_NOT_PEPTIDE_BONDS_IN_CYCLIC_AMIDINES, padj 0.00629559): -1.842
ES (GOMF_ION_TRANSMEMBRANE_TRANSPORTER_ACTIVITY): 0.1805
NES (GOMF_ION_TRANSMEMBRANE_TRANSPORTER_ACTIVITY, padj 0.0667134): 1.183
ES (GOMF_ISOMERASE_ACTIVITY): -0.3436
NES (GOMF_ISOMERASE_ACTIVITY, padj 0.0410059): -1.472
ES (GOMF_KINASE_BINDING): -0.2712
NES (GOMF_KINASE_BINDING, padj 0.019253): -1.314
ES (GOMF_KINASE_INHIBITOR_ACTIVITY): -0.4003
ES (GOMF_KINASE_REGULATOR_ACTIVITY): -0.3132
NES (GOMF_KINASE_REGULATOR_ACTIVITY, padj 0.0543588): -1.396
ES (GOMF_LIGASE_ACTIVITY_FORMING_CARBON_NITROGEN_BONDS): -0.4994
NES (GOMF_LIGASE_ACTIVITY_FORMING_CARBON_NITROGEN_BONDS, padj 0.0116225): -1.777
ES (GOMF_LYSINE_ACETYLATED_HISTONE_BINDING): -0.5519
NES (GOMF_LYSINE_ACETYLATED_HISTONE_BINDING, padj 0.0564834): -1.63
ES (GOMF_LYSOPHOSPHOLIPASE_ACTIVITY): 0.4699
NES (GOMF_LYSOPHOSPHOLIPASE_ACTIVITY, padj 0.0722653): 1.706
ES (GOMF_MAGNESIUM_ION_BINDING): -0.3426
NES (GOMF_MAGNESIUM_ION_BINDING, padj 0.0134631): -1.518
NES (GOMF_MAP_KINASE_KINASE_KINASE_ACTIVITY, padj 0.0759934): -1.58
ES (GOMF_METALLOENDOPEPTIDASE_ACTIVITY): -0.4444
NES (GOMF_METALLOENDOPEPTIDASE_ACTIVITY, padj 0.00334688): -1.785
ES (GOMF_METALLOPEPTIDASE_ACTIVITY): -0.3671
NES (GOMF_METALLOPEPTIDASE_ACTIVITY, padj 0.0120781): -1.581
ES (GOMF_METHYL_CPG_BINDING): -0.6439
